Assay results reported in US5158940A (priority 1990, dated 1992).
Where a name gives a salt, the structure may show the parent alone.

Columns and labels:
[1] = tested on: reverse transcriptase enzyme; settings: in vitro; JAMA 258 p. 1347-51 (1987); cited from earlier work
[2] = tested on: human immunodeficiency virus (HIV); settings: in vitro; JAMA 258 p. 1347-51 (1987); cited from earlier work
[3] = tested on: cytoplasmic and intranuclear enzymes; settings: Cancer Res. 47 p. 4694-8 (1987) and J. Clin. Onc. 7 p. 499-508 (1989); cited from earlier work
[4] = tested on: rheumatoid arthritis; type: in vivo, person
Source text: A person was initially diagnosed in 1975 with polyarthritis and an elevated serum rheumatoid factor level. Since then, the patient had required almost uninterrupted treatment with either supraphysiologic doses of steroid or remission-inducing agents. These included hydroxycloroquine, gold salts, cytoxan and most recently, penicillamine together with prednisone.
Prior to initiating suramin therapy, penicillamine and prednisone were discontinued and the patient was placed on physiologic replacement doses of hydrocortisone. […] Their serum rheumatoid factor titer was 1:2560. Serum antinuclear antibodies were absent and both anti-DNA screen and LE cell test were negative.

[5] = tested on: parasitic infections; settings: one gram bolus parenterally once per week for six weeks, total six grams; cited from earlier work
[6] = in vivo; cited from earlier work
[7] = tested on: various growth factors; settings: in vitro; J. Cellular Physiology 132 p. 143-8 (1987); cited from earlier work
[8] = nine months after initial start, no suramin after third cycle at six months
[9] = treatment period plus three months afterwards without suramin

Compound: Cc1ccc(C(=O)Nc2ccc(S(=O)(=O)O)c3cc(S(=O)(=O)O)cc(S(=O)(=O)O)c23)cc1NC(=O)c1cccc(NC(=O)Nc2cccc(C(=O)Nc3cc(C(=O)Nc4ccc(S(=O)(=O)O)c5cc(S(=O)(=O)O)cc(S(=O)(=O)O)c45)ccc3C)c2)c1 [Suramin, hexasodium salt of 8,8'-(carbonyl-bis(imino-3,1-phenylenecarbonylimino(4-methyl-3,1-phenylene)carbonylimo))bis-1,3,5-naphthalenetrisulfonic acid]
- ability to inhibit the reverse transcriptase enzyme [1]: inhibit the reverse transcriptase enzyme
- ability to revert the cytopathic effect of HIV [2]: revert the cytopathic effect of human immunodeficiency virus (HIV) in vitro
- binding to a variety of cytoplasmic and intranuclear enzymes [3]: bind to a variety of cytoplasmic and intranuclear enzymes
- formal rheumatologic evaluation (inflammatory joint disease, synovial proliferation) ([4]; at the end of therapy): virtually no inflammatory joint disease with only minimal synovial proliferation in the ulnar carpal region of their right wrist
- joint abnormalities in follow up hand photograph ([4]; follow up hand photograph): failed to show any significant change in their minimal joint abnormalities
- hematologic, hepatic or renal toxicity ([4]; in vivo): did not experience any significant hematologic, hepatic or renal toxicity
- size of rheumatoid nodules ([4]; initially documented after three months, more pronounced at five months): regression in the size of their multiple rheumatoid nodules
- arthritic symptoms at nine months [4, 8]: continued to remain without arthritic symptoms
- size of remaining rheumatoid nodules [4, 8]: remained unchanged
- disappearance of rheumatoid nodules ([4]; start of third cycle at five months): complete disappearance of as many as a third
- arthritic symptoms [4, 9]: improvement in their arthritic symptoms
- synovial swelling [4, 9]: decreased synovial swelling
- effectiveness for treating parasitic infections [5]: generally effective for treating parasitic infections
- plasma half-life [6]: 45 to 55 days
- ability to inhibit the activity of various growth factors [7]: inhibit the activity of various growth factors in vitro
